Assay results: US9981907B2, “Low molecular weight cationic lipids for oligonucleotide delivery” (SIRNA THERAPEUTICS, INC., priority 2010, dated 2018)

Key:
[1] = system: mRNA transcript for the firefly (Photinus pyralis) luciferase gene; test: Mouse in vivo evaluation of efficacy (luciferase siRNA LNP/RDV, liver luminescence); settings: LSL-Luc transgenic mice, RDV with Luc siRNA tail vein injected, 0.1 to 0.5 mg/kg siRNA, imaged 48 hours post dose; compared with RDV containing octyl-CLinDMA (OCD); FIG. 1
Experimental: LNPs utilizing Compound 1, in the nominal compositions described immediately above, were evaluated for in vivo efficacy. The siRNA targets the mRNA transcript for the firefly (Photinus pyralis) luciferase gene (Accession #M15077). […] The in vivo luciferase model employs a transgenic mouse in which the firefly luciferase coding sequence is present in all cells. ROSA26-LoxP-Stop-LoxP-Luc (LSL-Luc) transgenic mice licensed from the Dana Farber Cancer Institute are induced to express the Luciferase gene by first removing the LSL sequence with a recombinant Ad-Cre virus (Vector Biolabs). Due to the organo-tropic nature of the virus, expression is limited to the liver when delivered via tail vein injection. Luciferase expression levels in liver are quantitated by measuring light output, using an IVIS imager (Xenogen) following administration of the luciferin substrate (Caliper Life Sciences). Pre-dose luminescence levels are measured prior to administration of the RDVs. Luciferin in PBS (15 mg/mL) is intraperitoneally (IP) injected in a volume of 150 μL. After a four minute incubation period mice are anesthetized with isoflurane and placed in the IVIS imager. The RDVs (containing siRNA) in PBS vehicle were tail vein injected n a volume of 0.2 mL. […] In vivo efficacy results are expressed as % inhibition of luminescence relative to pre-dose luminescence levels. […]

[2] = Rat in vivo toxicity (survival after LNP dosing); settings: for Rats that failed to survive 48 hours: rats treated with 3 mg/kg
Experimental: Six hours post dose, food is removed from the cages. Animal necropsy is performed 24 hours after LNP dosing. Rats are anesthetized under isoflurane for 5 minutes, then maintained under anesthesia by placing them in nose cones continuing the delivery of isoflurane until ex-sanguination is completed. Blood is collected from the vena cava using a 23 gauge butterfly venipuncture set and aliquoted to serum separator vacutainers for serum chemistry analysis. Punches of the excised caudate liver lobe are taken and placed in RNALater (Ambion) for mRNA analysis. Preserved liver tissue was homogenized and total RNA isolated using a Qiagen bead mill and the Qiagen miRNA-Easy RNA isolation kit following the manufacturer's instructions. Liver ApoB mRNA levels were determined by quantitative RT-PCR. Message was amplified from purified RNA utilizing a rat ApoB commercial probe set (Applied Biosystems Cat #RN01499054_m1). The PCR reaction was performed on an ABI 7500 instrument with a 96-well Fast Block. The ApoB mRNA level is normalized to the housekeeping PPIB (NM 011149) mRNA. PPIB mRNA levels were determined by RT-PCR using a commercial probe set (Applied Biosystems Cat. No. Mm00478295_m1). Results are expressed as a ratio of ApoB mRNA/PPIB mRNA. All mRNA data is expressed relative to the PBS control dose. Serum ALT and AST analysis were performed on the Siemens Advia 1800 Clinical Chemistry Analyzer utilizing the Siemens alanine aminotransferase (Cat #03039631) and aspartate aminotransferase (Cat #03039631) reagents. […] 3 out of 4 rats treated with 6 mg/kg Compound 2 survived at 48 hours post dose.

[3] = Determination of cationic lipid levels in rat liver (LC/MS-MS); type: in vivo; settings: rats dosed with RDV; compared with RDV containing DLinKC2DMA (Compound 4) or MC3 (Compound 3); FIG. 3
Experimental: Liver tissue was weighed into 20-ml vials and homogenized in 9 v/w of water using a GenoGrinder 2000 (OPS Diagnostics, 1600 strokes/min, 5 min). A 50 μL aliquot of each tissue homogenate was mixed with 300 μL of extraction/protein precipitating solvent (50/50 acetonitrile/methanol containing 500 nM internal standard) and the plate was centrifuged to sediment precipitated protein. A volume of 200 μL of each supernatant was then transferred to separate wells of a 96-well plate and 10 μl samples were directly analyzed by LC/MS-MS.
Standards were prepared by spiking known amounts of a methanol stock solution of compound into untreated rat liver homogenate (9 vol water/weight liver). Aliquots (50 μL) each standard/liver homogenate was mixed with 300 μL of extraction/protein precipitating solvent (50/50 acetonitrile/methanol containing 500 nM internal standard) and the plate was centrifuged to sediment precipitated protein. A volume of 200 μL of each supernatant was transferred to separate wells of a 96-well plate and 10 μl of each standard was directly analyzed by LC/MS-MS.
Absolute quantification versus standards prepared and extracted from liver homogenate was performed using an Aria LX-2 HPLC system (Thermo Scientific) coupled to an API 4000 triple quadrupole mass spectrometer (Applied Biosystems). […]

In the case of `CCCCC/C=C\C/C=C\CCCCCCCCCC(CCCCCCCCC)OC(=O)CCCN(C)C` (centres unmarked) [Compound 1, (20Z,23Z)-nonacosa-20,23-dien-10-yl 4-(dimethylamino)butanoate], the “In vivo efficacy, % inhibition of luminescence relative to pre-dose luminescence levels” value [1] is reported as “Greater efficacy”.

In the case of `CCCCCCCC/C=C\CCCCCCCC(CCCCCCCCC)OC(=O)CCCN(C)C` (centres unmarked) [Compound 2, (18Z)-heptacos-18-en-10-yl 4-(dimethylamino)butanoate], the “Rats survived at 48 hours post dose” value ([2]; female, Sprague-Dawley (Crl:CD(SD)), rat, in vivo, 6 mg/kg, 48 h) is reported as 3 out of 4 and the “Cationic lipid liver levels” value [3] is reported as “lower”.

With `CCCCC/C=C\C/C=C\CCCCCCCCC(CCCCCCCC/C=C\C/C=C\CCCCC)OC(=O)CCCN(C)C` [Compound 3, MC3] the “Rats that failed to survive 48 hours” value [2] was 2 out of 4.

In the case of `CCCCC/C=C\C/C=C\CCCCCCCCC1(CCCCCCCC/C=C\C/C=C\CCCCC)OCC(CCN(C)C)O1` (centres unmarked) [Compound 4, DLinKC2DMA], the “Rats that failed to survive 48 hours” value [2] is reported as 3 out of 4.
